Reference: patent US10669637B2, “Purine-based corrosion inhibitors” (Ecolab USA Inc., priority 2015, dated 2020)

Test: Copper corrosion rate by linear polarization resistance
Settings: for No FRC Corrosion Rate (mpy) / 1 ppm FRC Corrosion Rate (mpy): copper coupons, 5 ppm inhibitor, pH 7.0, 45° C.; for No FRC Corrosion Rate (mpy): absence of bleach, average over 20 to 24 hour period; for 1 ppm FRC Corrosion Rate (mpy): bleach maintained at 1 ppm FRC
Protocol: In addition, the corrosion rate of copper in the presence of benzimidazole, tolyltriazole, imidazole, pyrimidine, 6,6-dimethyladenine, and 6-methylpurine was determined using linear polarization resistance measurements. […] For each experiment, cylindrical copper coupons pre-polished using SIC 600 paper and fitted on a Pine rotator were immersed in a solution of corrosion inhibitor. […] The pH of the test water was maintained at 7.0 using carbon dioxide, and the water temperature was maintained at 45° C. throughout the experiment. […] Density: 8.92 g/cm^3; Copper Eq. Weight: 63.54 g; and Initial delay: 30 seconds. Next, the copper samples were exposed to a 25% bleach solution. […] The Rp in the absence and presence of bleach was collected and analyzed, and the average corrosion rate was calculated and recorded in Table 1. Corrosion rates were calculated in mils per year (mpy).

For `Clc1ncnc2nc[nH]c12` [Compound 3, 6-Chloropurine], which “No FRC Corrosion Rate (mpy)” value is on record?
Its value is 0.04 mpy.

And the “1 ppm FRC Corrosion Rate (mpy)” value?
The value was 0.16 mpy.

With `Oc1ncnc2nc[nH]c12` [Compound 4, Hypoxanthine] as the compound, how does the “No FRC Corrosion Rate (mpy)” value read?
Its value is 0.1036 mpy.

What about the “1 ppm FRC Corrosion Rate (mpy)” value of the same compound?
The value was 0.1684 mpy.

Which “change of copper corrosion rate upon the addition of bleach” value (1 ppm FRC) does the source give for `Nc1ncnc2nc[nH]c12` [Compound 5, Adenine] here?
The value was “observed increase”.

And the “No FRC Corrosion Rate (mpy)” value?
Its value is 0.1665 mpy.

What about the “No FRC Corrosion Rate (mpy)” value (listed as adenine) of the same compound?
The value was 0.16 mpy.

What about the “1 ppm FRC Corrosion Rate (mpy)” value of the same compound?
The value was 0.3571 mpy.

And the “1 ppm FRC Corrosion Rate (mpy)” value (listed as adenine)?
Its value is 0.35 mpy.

What does the source list for `c1ccc2[nH]cnc2c1` [Compound 6, Benzimidazole]?
No FRC Corrosion Rate (mpy): 0.0890 mpy; 1 ppm FRC Corrosion Rate (mpy): 0.9594 mpy

With `c1c[nH]cn1` [Compound 8, Imidazole] as the compound, how does the “No FRC Corrosion Rate (mpy)” value read?
The value was 0.69 mpy.

And the “1 ppm FRC Corrosion Rate (mpy)” value?
Its value is 1.1 mpy.

Which “No FRC Corrosion Rate (mpy)” value does the source give for `c1cncnc1` [Compound 9, Pyrimidine] here?
Its value is 1.2 mpy.

And the “1 ppm FRC Corrosion Rate (mpy)” value?
The value was 0.79 mpy.

Which results are given for `CN(C)c1ncnc2nc[nH]c12` [Compound 10, 6,6-Dimethyladenine]?
No FRC Corrosion Rate (mpy): 0.68 mpy; 1 ppm FRC Corrosion Rate (mpy): 0.66 mpy

For `Cc1ncnc2nc[nH]c12` [Compound 11, 6-Methylpurine], which “No FRC Corrosion Rate (mpy)” value is on record?
Its value is 0.74 mpy.

And the “1 ppm FRC Corrosion Rate (mpy)” value?
Its value is 0.44 mpy.

Which results are given for Tolyltriazole [Compound 7]?
No FRC Corrosion Rate (mpy): 0.0214 mpy; 1 ppm FRC Corrosion Rate (mpy): 0.0995 mpy
